# What was measured:
# hepatitis B virus (HBV) [1] = assay: Progeny HBV in medium of infected HepG2 cells (immunoprecipitation, PCR, densitometry); assay type: cell-based, HBV in human hepatoma HepG2 cells; conditions: NBDNJ 700 μg/ml (3.2 mM), HepG2 cells infected with protease processed HBV, five days after infection
# Source text: FIG. 3A and FIG. 3C: DNA from virions, immunoprecipitated with monoclonal antibody to MHBs, was amplified by polymerase chain reaction (PCR) and resolved by agarose gel electrophoresis.
# These bands were imaged by densitometry and the areas under the peaks are shown in FIG. 3C in which the average of the two samples of each NBDNJ concentration was plotted.
# Infection of HepG2 cells:
# HBV was purified from human serum or from the medium of cultured cells by sedimentation to between 40 and 46% sucrose (w/w) following ultracentrifugation, [Seifer et al., Virol. 179, 300-311 (1990)]. Virions were dialyzed in 0.02 M Potassium Phosphate Buffer, pH 7.4, concentrated, treated with V8 protease (from Staphylococcus aureus, Sigma Chemical Co.) overnight at 37° C. centrifuged for 8 hours through a 20% sucrose/0.01M Tris, pH 7.4, 0.14 M NaCl, 0.005 M EDTA (TNE) cushion. The pellets were re-suspended in growth medium and then used to inoculate HepG2 cells.
# Progeny virus in the medium of HepG2 cells infected with serum derived HBV was detected by precipitating medium with monoclonal antibody to the PreS2 epitopes. DNA from immunoprecipated virions was amplified by a polymerase chain reaction (PCR) using primers from nucleotides 2815 and 190 with respect to the viral genome (using the EcoRI site as nucleotide 1). […]
# hepatitis B virus (HBV) [2] = assay: Intracellular HBV DNA in infected HepG2 cells (PCR, densitometry); assay type: cell-based, HBV in human hepatoma HepG2 cells; conditions: HepG2 cells infected with HBV and post treated with NBDNJ, vs untreated
# Protocol: FIG. 3B and FIG. 3D: DNA from the intracellular compartment of the cultures infected in FIG. 3A with HBV and treated with NBDNJ were amplified by PCR. The lanes contain amplified DNA from the following samples:
# FIG. 3D: Histogram of the area under the averaged peaks of the densitometric tracing of the gel in FIG. 3B. […] Equal volumes of the indicated samples were tested for HBV envelope antigens using the enzyme-linked imminosorbent assay (ELISA) method. Samples of unfractionated medium (FIGS. 4A, 4B and 4C) or partially purified virus (FIGS. 4D, 4E and 4F) from 3-day cultures were tested for HBV SHBs ("S) (FIGS. 4A and 4D), LHBs: "PreS1" (FIGS. 4B and 4E) or MHBs "PreS2" (FIGS. 4C and 4F) epitopes. […]
# Progeny virus in the medium of HepG2 cells infected with serum derived HBV was detected by precipitating medium with monoclonal antibody to the PreS2 epitopes. […]
# Since the culture medium of HBV infected HepG2 cells treated with NBDNJ was similar to 2.2.15 cells, with respect to the reduced amount of virion associated DNA, it was of interest to know if there was a concomitant increase in viral DNA within the treated cells. […] Products of the reaction were resolved by agarose gel electrophoresis and the ethidium bromide stained gel (FIG. 3B) was analyzed by densitometry (FIG. 3D).
# LHBs (PreS1) antigen = assay: ELISA of LHBs (PreS1) antigen in unfractionated culture medium of 2.2.15 cells; assay type: cell-based, HBV
# Protocol: (§1) FIG. 3D: Histogram of the area under the averaged peaks of the densitometric tracing of the gel in FIG. 3B. […] Equal volumes of the indicated samples were tested for HBV envelope antigens using the enzyme-linked imminosorbent assay (ELISA) method. Samples of unfractionated medium (FIGS. 4A, 4B and 4C) or partially purified virus (FIGS. 4D, 4E and 4F) from 3-day cultures were tested for HBV SHBs ("S) (FIGS. 4A and 4D), LHBs: "PreS1" (FIGS. 4B and 4E) or MHBs "PreS2" (FIGS. 4C and 4F) epitopes. Cultures were maintained in the indicated concentrations of NBDNJ, expressed in millimolar units and shown along the X axis.
# (§2) Detection of HBV proteins by the Enzyme Linked Immunoabsorbant assay (ELISA).
# Monoclonal antibodies used herein are well-known and are described by Heerman et al., J. Virol. […]
# (§3) Bound antigen was detected by incubation with peroxidase conjugated goat anti-HBs antibody (Behring) followed by development in orthophenylenediamine (0.33 mg/ml PBS-peroxide solution). Optical densities were read in a Behring plate reader. Tests on purified virus and total medium were conducted over a series of sample dilutions to insure proper quantification.
# (§4) To distinguish between these possibilities, the amount and nature of envelope antigens in the culture medium was determined by both ELISA and Western analysis. […]
# MHBs (PreS2) antigen = assay: ELISA of MHBs (PreS2) antigen in unfractionated culture medium of 2.2.15 cells; assay type: cell-based, HBV
# Protocol: as §1, §2
# Monoclonal antibodies used herein are well-known and are described by Heerman et al., J. Virol. 52, 396-402 (1984), for antibody to PreS1 (MA 18/7); Heerman et al., Intervirology 28: 14-21 (1987), for antibody to PreS2 (Q 19/10), see also Gerlich and Bruss, Molecular Biology of Hepatitis B Virus, ed. A. McLachlan, CRC Press, 109-144 (1992), and in Hepatitis B Vaccines in Clinical Practice, ed. R. W. Ellis, Marcel Dekker, Inc., pp. 41-82 (1992); and Heerman et al., in Viral Hepatitis and Liver Disease, ed. Zuckermann, A. R. Liss, 697-701 (1988), for antibody to S (C20-2).].
# Samples were incubated in microtiter wells coated (overnight at 4° C.) with monoclonal antibodies specific for the LHBs, MHBs or SHBs epitopes and blocked with 1% BSA in PBS. After incubation with virus samples in for 1 hour (37° C.), plates were washed 4 times with PBS/0.1% Tween 20 non-ionic detergent.
# as §3, §4
smiles,measurement,setting,value
"CCCCN1C[C@H](O)[C@@H](O)[C@H](O)[C@H]1CO [NBDNJ, N-butyl-1,5-dideoxy-1,5-imino-D-glucitol]",viral DNA in medium of infected cells vs untreated,hepatitis B virus (HBV) [1],an order of magnitude less viral DNA
same,accumulation of intracellular viral DNA,hepatitis B virus (HBV) [2],accumulate greater amounts of viral DNA
same,effect upon total amount of LHBs (PreS1) antigen in medium,LHBs (PreS1) antigen,no significant effect
same,decrease in the amount of MHBs antigen in medium (in words),"MHBs (PreS2) antigen; 1000 μg/ml NBDNJ, 2.2.15 cells",two-fold decrease
same,decrease in total amount of MHBs (PreS2) antigen in medium,"MHBs (PreS2) antigen; highest NBDNJ concentration, 4.5 mM or approximately 1000 μg/ml",approximately 2.5 fold
same,total amount of MHBs (PreS2) antigen in medium (in words),"MHBs (PreS2) antigen; unfractionated medium, 2.2.15 cells","modest, dose-dependentdecrease"
